From patent US8834841B2, “Imaging agents” (priority 2005, dated 2014)

Assays:
[1] = system: type “L” type large-neutral amino acid transport system; test: in vitro uptake studies in human tumor cells, summary; assay type: cell-based; details: U87, DU145, A549, SKOV3, MB468 cells (Table 1)
Text: The inventive compounds have been evaluated in vitro for tumor binding specificity (i.e. uptake cells) using a variety of tumor cell lines available in the art, along with reference compounds such as Me-AIB and BCH. Detailed description of these assays can be found in Martarello et al. (2002) Journal of Medicinal Chemistry, 45:2250-2259 and McConathy et al. (2003) Nuclear Medicine and Biology, 30:477-490. These, so called “amino acid uptake studies” are typically carried out with radiolabeled compounds in at least five phenotypically different human tumor cell lines (e.g. A549 lung carcinoma, MB468 breast carcinoma, DU145 prostate carcinoma, SKOV3 ovarian carcinoma, and U87 glial blastoma). These tumor cell lines can be grown either in vitro or in vivo with severe combined immunodeficiency (SCID) mice as a host. […]
In the in vitro studies the uptake rate of each amino acid compound is measured in each tumor line, as well as the dominant transport mechanisms of each tumor cell line. After trypsinization, cells are resuspended in serum-free media, then counted on a hemocytometer, with viability assessed through Trypan blue staining. […] The vials are placed in a Cobra-II gamma counter (Packard, Meriden, Conn.), with the activity per cell number determined. […] Saline washes are performed as described above, and the filtered cells radioactivity determined on the gamma counter. […]

[2] = system: SKOV3 Ovarian Tumor Cells Implanted SC in SCID Mice; test: tissue distribution, SKOV3 tumor-bearing SCID mice; assay type: in vivo
Method: For the in vitro amino acid uptake studies, all cells can be grown to monolayer confluency in T-175 culture flasks [Corning, Corning, N.Y.] (approx. 1×10^8 cells/flask) in Dulbecco's Modified Eagle's Medium (DMEM) [Sigma, St. Louis, Mo.] in a humidified incubator (37° C., 5% CO2/95% air). Media are supplemented with 10% fetal calf serum [Hyclone, Logan, Utah], and antibiotics (10,000 U/ml penicillin and 10 mg/ml streptomycin) (Sigma, St. Louis, Mo.). For tissue culture passage, monolayer cells are detached by gentle trypsinization, resuspended in complete media, and split 1:10 into new T-flasks. Cultures are passaged weekly, and fed fresh media every 2 to 3 days. To initiate tumor growth in SCID mice, 1×10^6 cells are injected s.c. bilaterally into the flanks (inguinal region) of the recipient animals using a 1 ml syringe with a 27 gauge needle. Ex vivo experiments can be performed with animals containing tumors weighing between 500 mg and 1 g, as estimated by caliper measurement (tumor weight=(π/6)*abc, where a, b and c are the tumor length, width and height, respectively). The compounds of the invention are further evaluated for their tumor specificity and selectivity in tumor-bearing animal models. One can evaluate and compare the transport, accumulation and tissue distribution of each compound in these in vivo animal studies. Tissue distribution of the compounds is measured in SCID mice (average weight, 20-25 g) bearing human tumors as follows. The candidate radioligands (20 uCi in 0.4 ml 0.9% NaCl) are injected into the tail vein of tumor-bearing mice. […] Tissues (blood, heart, liver, lungs, kidneys, bone, thyroid, muscle, brain and tumor) are excised, rinsed in saline, and blotted dry. The tissues are weighed, placed into 12×75 mm glass vials, the radioactivity determined with a gamma counter, and the percent dose/gram calculated. Total activities of blood and muscle are calculated by assuming that they account for 7% and 40% of the total body mass, respectively.

NC1(C(=O)O)CCC1[18F] [Anti-R,S 2-[^18F]FACBC, (R,S) anti-1-amino-2-[^18F]fluorocyclobutyl-1-carboxylic acid]
uptake by the type “L” type large-neutral amino acid transport system [1]: high uptake | % Dose/g blood ([2]; 15 Minutes): 3.01 % Dose/g | % Dose/g bone ([2]; 15 Minutes): 1.40 % Dose/g | % Dose/g brain ([2]; 15 Minutes): 0.18 % Dose/g | % Dose/g heart ([2]; 15 Minutes): 2.37 % Dose/g | % Dose/g kidney ([2]; 15 Minutes): 8.70 % Dose/g | % Dose/g liver ([2]; 15 Minutes): 2.62 % Dose/g | % Dose/g lung ([2]; 15 Minutes): 3.96 % Dose/g | % Dose/g muscle ([2]; 15 Minutes): 1.14 % Dose/g | % Dose/g pancreas ([2]; 15 Minutes): 34.27 % Dose/g | % Dose/g spleen ([2]; 15 Minutes): 5.00 % Dose/g | % Dose/g tumor ([2]; 15 Minutes): 4.89 % Dose/g | % Dose/g blood ([2]; 30 Minutes): 2.22 % Dose/g | % Dose/g bone ([2]; 30 Minutes): 1.46 % Dose/g | % Dose/g brain ([2]; 30 Minutes): 0.21 % Dose/g | % Dose/g heart ([2]; 30 Minutes): 2.16 % Dose/g | % Dose/g kidney ([2]; 30 Minutes): 6.12 % Dose/g | % Dose/g liver ([2]; 30 Minutes): 2.49 % Dose/g | % Dose/g lung ([2]; 30 Minutes): 2.65 % Dose/g | % Dose/g muscle ([2]; 30 Minutes): 1.21 % Dose/g | % Dose/g pancreas ([2]; 30 Minutes): 31.88 % Dose/g | % Dose/g spleen ([2]; 30 Minutes): 5.22 % Dose/g | % Dose/g tumor ([2]; 30 Minutes): 5.56 % Dose/g | % Dose/g blood ([2]; 60 Minutes): 0.94 % Dose/g | % Dose/g bone ([2]; 60 Minutes): 0.91 % Dose/g | % Dose/g brain ([2]; 60 Minutes): 0.15 % Dose/g | % Dose/g heart ([2]; 60 Minutes): 1.40 % Dose/g | % Dose/g kidney ([2]; 60 Minutes): 2.27 % Dose/g | % Dose/g liver ([2]; 60 Minutes): 1.28 % Dose/g | % Dose/g lung ([2]; 60 Minutes): 1.26 % Dose/g | % Dose/g muscle ([2]; 60 Minutes): 1.03 % Dose/g | % Dose/g pancreas ([2]; 60 Minutes): 17.57 % Dose/g | % Dose/g spleen ([2]; 60 Minutes): 2.57 % Dose/g | % Dose/g tumor ([2]; 60 Minutes): 4.53 % Dose/g | % Dose/g blood ([2]; 120 Minutes): 0.53 % Dose/g | % Dose/g bone ([2]; 120 Minutes): 0.94 % Dose/g | % Dose/g brain ([2]; 120 Minutes): 0.16 % Dose/g | % Dose/g heart ([2]; 120 Minutes): 1.00 % Dose/g | % Dose/g kidney ([2]; 120 Minutes): 1.37 % Dose/g | % Dose/g liver ([2]; 120 Minutes): 0.67 % Dose/g | % Dose/g lung ([2]; 120 Minutes): 0.68 % Dose/g | % Dose/g muscle ([2]; 120 Minutes): 0.65 % Dose/g | % Dose/g pancreas ([2]; 120 Minutes): 10.42 % Dose/g | % Dose/g spleen ([2]; 120 Minutes): 1.51 % Dose/g | % Dose/g tumor ([2]; 120 Minutes): 3.39 % Dose/g
